Experimental findings from ChEMBL document CHEMBL3045847, “Efficacy evaluation of a neem (Azadirachta indica A. Juss) formulation against root-knot nematodes Meloidogyne incognita” (Crop Prot, 2009) are described below.

Molecules are shown by their SMILES. Active and inactive are the calls of the source. The rule behind the calls is not given here.

Series [1] relates to Meloidogyne incognita. The series is described as follows: Insecticidal activity against second stage juveniles of Meloidogyne incognita (root-knot nematode) assessed as motility at 0.2 to 3.2 ug a.i/ml in methanol after 24 to 96 hr. The series is classed as functional, organism-based.
Series [2] relates to Meloidogyne incognita. The series is described as follows: Insecticidal activity against second stage juveniles of Meloidogyne incognita (root-knot nematode) assessed as increase in immotile at 12.8 to 51.2 ug a.i/ml in methanol after 24 to 96 hr. The series is classed as functional, organism-based.
Series [3] concerns Meloidogyne incognita. Nature of the series: Insecticidal activity against second stage juveniles of Meloidogyne incognita (root-knot nematode) assessed as motility at 0.2 to 3.2 ug a.i/ml in water after 24 to 96 hr. The series is classed as functional, organism-based.
In series [4] the test system is Meloidogyne incognita. The series is described as follows: Insecticidal activity against second stage juveniles of Meloidogyne incognita (root-knot nematode) assessed as decrease of female nematodes in tomato roots at 0.03 to 30.72 ug/g after 30 days by pot bioassay. The series is classed as functional, organism-based.
Series [5] has as its system Meloidogyne incognita. The series is described as follows: Insecticidal activity against second stage juveniles of Meloidogyne incognita (root-knot nematode) assessed as motility at 0.2 ug a.i/ml in water after 24 to 96 hr. The class given is functional, organism-based.
A short description of series [6]: Chemical stability of the compound after 4 days by HPLC analysis. The series is classed as physicochemical. The note with it: 96 h.
For series [7], the system named is Meloidogyne incognita. Nature of the series: Insecticidal activity against second stage juveniles of Meloidogyne incognita (root-knot nematode) assessed as increase in immotile at 51.2 ug a.i/ml in methanol after 48 to 96 hr. The series is classed as functional.
In series [8] the test system is Meloidogyne incognita. The series is described as follows: Insecticidal activity against second stage juveniles of Meloidogyne incognita (root-knot nematode) assessed as decrease of female nematodes in tomato roots at 2 ug/g after 30 days by pot bioassay. The class given is functional, organism-based.
The test system of series [9] is Solanum lycopersicum. The series is described as follows: Phytotoxicity in Solanum lycopersicum (tomato) assessed as effect on shoot and root fresh weight at 2 ug/g after 24 hr. The class given is organism-based. The note with it: in vivo.
Series [10] concerns Solanum lycopersicum. Nature of the series: Toxicity in Solanum lycopersicum (tomato) assessed as effect on shoot and root fresh weight at 2 ug/g after 24 hr. The note with it: in vivo. The class given is organism-based.
Series [11] can be described thus: Chemical stability of the compound after 72 hr by HPLC analysis. The class given is physicochemical.
Series [12] relates to Solanum lycopersicum. Nature of the series: Toxicity in Solanum lycopersicum (tomato) assessed as effect on shoot and root fresh weight at 0.03 to 30.72 ug/g after 24 hr. The series is classed as organism-based. The note with it: in vivo.
Series [13] has as its system Meloidogyne incognita. Nature of the series: Insecticidal activity against second stage juveniles of Meloidogyne incognita (root-knot nematode) assessed as increase in immotile at 12.8 to 51.2 ug a.i/ml in water after 24 to 96 hr. The class given is functional.
Series [14] deals with Solanum lycopersicum. Nature of the series: Phytotoxicity in Solanum lycopersicum (tomato) assessed as effect on shoot and root fresh weight at 0.03 to 30.72 ug/g after 24 hr. The series is classed as organism-based. The note with it: in vivo.

`C/C=C(\C)C(=O)O[C@H]1C[C@@H](OC(C)=O)[C@@]2(C(=O)OC)CO[C@H]3[C@@H](O)[C@@](C)([C@]45O[C@@]4(C)[C@@H]4C[C@H]5O[C@@H]5OC=C[C@@]54O)[C@H]4[C@]1(CO[C@]4(O)C(=O)OC)[C@@H]32` (stereo in doubt; form 1): the result with Meloidogyne incognita [1] was inactive. In the series on Meloidogyne incognita [2], the result was Active.
Regarding `C/C=C(\C)C(=O)O[C@H]1C[C@@H](OC(C)=O)[C@@]2(C(=O)OC)CO[C@H]3[C@@H](O)[C@@](C)([C@]45O[C@@]4(C)[C@@H]4C[C@H]5O[C@@H]5OC=C[C@@]54O)[C@H]4[C@]1(CO[C@]4(O)C(=O)OC)[C@@H]32` (stereo in doubt; form 2), the outcome with Meloidogyne incognita [3], in the series with Meloidogyne incognita [4] and in the series on Meloidogyne incognita [5] was inactive.
For the molecule `C/C=C(\C)C(=O)O[C@H]1C[C@@H](OC(C)=O)[C@@]2(C(=O)OC)CO[C@H]3[C@@H](O)[C@@](C)([C@]45O[C@@]4(C)[C@@H]4C[C@H]5O[C@@H]5OC=C[C@@]54O)[C@H]4[C@]1(CO[C@]4(O)C(=O)OC)[C@@H]32` (stereo in doubt; form 1) [AZADIRACHTIN A], the Activity in series [6] is on record as 84%; in the series on Meloidogyne incognita [7], 11%.
With `CCOP(=O)(SC(C)CC)N1CCSC1=O` (stereo not given) [FOSTHIAZATE], the outcome in the series with Meloidogyne incognita [8] was Active. Further, the Activity result in the series on Solanum lycopersicum [9] and in the series with Solanum lycopersicum [10] was “Non-toxic” in each case.
Consider `C/C=C(\C)C(=O)O[C@H]1C[C@@H](OC(C)=O)[C@@]2(C(=O)OC)CO[C@H]3[C@@H](O)[C@@](C)([C@]45O[C@@]4(C)[C@@H]4C[C@H]5O[C@@H]5OC=C[C@@]54O)[C@H]4[C@]1(CO[C@]4(O)C(=O)OC)[C@@H]32` (stereo in doubt; form 2) [AZADIRACHTIN A], for which the Activity was 88% in series [6], “Non-toxic” in the series on Solanum lycopersicum [12], 21% with Meloidogyne incognita [13] and “Non-toxic” with Solanum lycopersicum [14]. Also, the Stability entry in series [11] is “Stable”.
